What follows are compounds tested on MV4;11 cells (assay: Cell proliferation experiment (Alamar blue, 72 h), MV4;11). Settings: Homo sapiens, MV4-11, MV4;11 cells; read-out: Inhibitory activity IC50 on MV4;11.
Type: cell-based, human
Method: (§1) Reagents: RPMI-1640 medium, McCoy's 5A medium, IMDM medium, MEM medium, L-15 medium, fetal bovine serum. Penicillin-Streptomycin double antibody, trypsin, etc., 2-mercaptoethanol, NEAA, pyruvate, etc.
(§2) The cells were cultured in conventional ways, and the cells should be passed at least 2 generations before plating. Cells at the logarithmic growth phase were collected, prepared into single cell suspensions and counted. The concentration of cells was adjusted to the desired concentration, and cells were inoculated into a 96-well cell culture plate at 100 μl per well. 100 μL of complete medium of the test compound were added to each well, set up 2 duplicate wells for each concentration, and diluted with a 5-fold gradient, and continued to culture for 72 h. All cells were subjected to IC50 test for corresponding samples. The experimental results are shown in Test Example 4.
(§3) The fluorescence intensity of each well was detected using the Alarm blue method, and IC50 was calculated.
(§4) IC50 was calculated according to the following formula:
(§5) Y=Max+(Min−Max)/[1+(X/IC50)×Slope]
(§6) wherein Min, Max and Slope represent the minimum, maximum and slope respectively.

| SMILES | IC50 [nM] |
| --- | --- |
| CCNC(=O)C#Cc1ccc2c(c1)NC(=O)/C2=C(\Nc1ccc(CNCCOCCOCCOCCC(=O)Nc2ccc3c(c2)CN(C2CCC(=O)NC2=O)C3=O)cc1)c1ccccc1 (stereo not drawn) [UB-180972] | 10 to 100 |
| O=C1CCC(N2Cc3cc(C#CCCNCCOCCOCCOCCn4cc([C@]5(Cc6cccc(Nc7nccs7)n6)CC[C@@H](Oc6cccc(Cl)c6F)CC5)nn4)ccc3C2=O)C(=O)N1 (stereo partly drawn) [UB-180973] | 100 to 1000 |
| O=C1CCC(N2Cc3c(C#CCCNCCOCCOCCOCCn4cc(-c5ccc(Nc6ncc7c(n6)-c6ccc(Cl)cc6C(c6c(F)cccc6F)=NC7)cc5)nn4)cccc3C2=O)C(=O)N1 (stereo not drawn) [UB-180974] | 100 to 1000 |
| O=C1CCC(N2Cc3c(C#CCCOCCN[C@H]4CC[C@H](n5cc(-c6ccc(Nc7ncc8c(n7)-c7ccc(Cl)cc7C(c7c(F)cccc7F)=NC8)cc6)nn5)CC4)cccc3C2=O)C(=O)N1 (stereo partly drawn) [UB-180975] | > 1000 |
| O=C1CCC(N2Cc3cc(NC(=O)CNCCOCCOCCOCCn4cc(-c5ccc(Nc6ncc7c(n6)-c6ccc(Cl)cc6C(c6c(F)cccc6F)=NC7)cc5)nn4)ccc3C2=O)C(=O)N1 (stereo not drawn) [UB-180976] | 100 to 1000 |
| O=C1CCC(N2Cc3cc(NC(=O)CCOCCOCCN[C@H]4CC[C@@H](n5cc(-c6ccc(Nc7ncc8c(n7)-c7ccc(Cl)cc7C(c7c(F)cccc7F)=NC8)cc6)nn5)CC4)ccc3C2=O)C(=O)N1 (stereo partly drawn) [UB-180981] | > 1000 |
| O=C1CCC(N2Cc3cc(NC(=O)CCCCCCCNCCCn4cc(-c5ccc(Nc6ncc7c(n6)-c6ccc(Cl)cc6C(c6c(F)cccc6F)=NC7)cc5)nn4)ccc3C2=O)C(=O)N1 (stereo not drawn) [UB-180982] | 100 to 1000 |
| O=C1CCC(N2Cc3cc(NC(=O)CCCCCCCNCCn4cc(-c5ccc(Nc6ncc7c(n6)-c6ccc(Cl)cc6C(c6c(F)cccc6F)=NC7)cc5)nn4)ccc3C2=O)C(=O)N1 (stereo not drawn) [UB-180983] | 10 to 100 |
| O=C1CCC(N2Cc3c(NC(=O)CCCCCCCNCCCn4cc(-c5ccc(Nc6ncc7c(n6)-c6ccc(Cl)cc6C(c6c(F)cccc6F)=NC7)cc5)nn4)cccc3C2=O)C(=O)N1 (stereo not drawn) [UB-180987] | > 1000 |
| O=C1CCC(N2Cc3c(NC(=O)CCCCCCCN[C@H]4CC[C@@H](n5cc(-c6ccc(Nc7ncc8c(n7)-c7ccc(Cl)cc7C(c7c(F)cccc7F)=NC8)cc6)nn5)CC4)cccc3C2=O)C(=O)N1 (stereo partly drawn) [UB-180988] | > 1000 |
| O=C1CCC(N2Cc3cc(NC(=O)CCCCCCCN[C@H]4CC[C@@H](n5cc(-c6ccc(Nc7ncc8c(n7)-c7ccc(Cl)cc7C(c7c(F)cccc7F)=NC8)cc6)nn5)CC4)ccc3C2=O)C(=O)N1 (stereo partly drawn) [UB-180989] | > 1000 |
| O=C1CCC(N2Cc3c(NC(=O)CCCCCCCCCNCCn4cc(-c5ccc(Nc6ncc7c(n6)-c6ccc(Cl)cc6C(c6c(F)cccc6F)=NC7)cc5)nn4)cccc3C2=O)C(=O)N1 (stereo not drawn) [UB-180990] | 100 to 1000 |
| O=C1CCC(N2Cc3cc(NC(=O)CCNCCOCCOCCn4cc(-c5ccc(Nc6ncc7c(n6)-c6ccc(Cl)cc6C(c6c(F)cccc6F)=NC7)cc5)nn4)ccc3C2=O)C(=O)N1 (stereo not drawn) [UB-180991] | 100 to 1000 |
| O=C1CCC(N2Cc3cc(NC(=O)CCNCCOCCOCCn4cc([C@]5(Cc6cccc(Nc7nccs7)n6)CC[C@@H](Oc6cccc(Cl)c6F)CC5)nn4)ccc3C2=O)C(=O)N1 (stereo partly drawn) [UB-180994] | 100 to 1000 |

These compounds were tested on Daudi cells (assay: Cell proliferation experiment, Daudi). Settings: Homo sapiens, Daudi, Daudi cells; read-out: Inhibitory activity IC50 on Daudi.
Type: cell-based, human
Method: as §1, §2, §3, §4, §5, §6

| SMILES | IC50 [nM] |
| --- | --- |
| CCNC(=O)C#Cc1ccc2c(c1)NC(=O)/C2=C(\Nc1ccc(CNCCOCCOCCOCCC(=O)Nc2ccc3c(c2)CN(C2CCC(=O)NC2=O)C3=O)cc1)c1ccccc1 (stereo not drawn) [UB-180972] | 100 to 1000 |
| O=C1CCC(N2Cc3cc(C#CCCNCCOCCOCCOCCn4cc([C@]5(Cc6cccc(Nc7nccs7)n6)CC[C@@H](Oc6cccc(Cl)c6F)CC5)nn4)ccc3C2=O)C(=O)N1 (stereo partly drawn) [UB-180973] | > 1000 |
| O=C1CCC(N2Cc3c(C#CCCNCCOCCOCCOCCn4cc(-c5ccc(Nc6ncc7c(n6)-c6ccc(Cl)cc6C(c6c(F)cccc6F)=NC7)cc5)nn4)cccc3C2=O)C(=O)N1 (stereo not drawn) [UB-180974] | > 1000 |
| O=C1CCC(N2Cc3c(C#CCCOCCN[C@H]4CC[C@H](n5cc(-c6ccc(Nc7ncc8c(n7)-c7ccc(Cl)cc7C(c7c(F)cccc7F)=NC8)cc6)nn5)CC4)cccc3C2=O)C(=O)N1 (stereo partly drawn) [UB-180975] | > 1000 |
| O=C1CCC(N2Cc3cc(NC(=O)CNCCOCCOCCOCCn4cc(-c5ccc(Nc6ncc7c(n6)-c6ccc(Cl)cc6C(c6c(F)cccc6F)=NC7)cc5)nn4)ccc3C2=O)C(=O)N1 (stereo not drawn) [UB-180976] | > 1000 |
| O=C1CCC(N2Cc3cc(NC(=O)CCOCCOCCN[C@H]4CC[C@@H](n5cc(-c6ccc(Nc7ncc8c(n7)-c7ccc(Cl)cc7C(c7c(F)cccc7F)=NC8)cc6)nn5)CC4)ccc3C2=O)C(=O)N1 (stereo partly drawn) [UB-180981] | > 1000 |
| O=C1CCC(N2Cc3cc(NC(=O)CCCCCCCNCCCn4cc(-c5ccc(Nc6ncc7c(n6)-c6ccc(Cl)cc6C(c6c(F)cccc6F)=NC7)cc5)nn4)ccc3C2=O)C(=O)N1 (stereo not drawn) [UB-180982] | > 1000 |
| O=C1CCC(N2Cc3cc(NC(=O)CCCCCCCNCCn4cc(-c5ccc(Nc6ncc7c(n6)-c6ccc(Cl)cc6C(c6c(F)cccc6F)=NC7)cc5)nn4)ccc3C2=O)C(=O)N1 (stereo not drawn) [UB-180983] | 100 to 1000 |
| O=C1CCC(N2Cc3c(NC(=O)CCCCCCCNCCCn4cc(-c5ccc(Nc6ncc7c(n6)-c6ccc(Cl)cc6C(c6c(F)cccc6F)=NC7)cc5)nn4)cccc3C2=O)C(=O)N1 (stereo not drawn) [UB-180987] | > 1000 |
| O=C1CCC(N2Cc3c(NC(=O)CCCCCCCN[C@H]4CC[C@@H](n5cc(-c6ccc(Nc7ncc8c(n7)-c7ccc(Cl)cc7C(c7c(F)cccc7F)=NC8)cc6)nn5)CC4)cccc3C2=O)C(=O)N1 (stereo partly drawn) [UB-180988] | > 1000 |
| O=C1CCC(N2Cc3cc(NC(=O)CCCCCCCN[C@H]4CC[C@@H](n5cc(-c6ccc(Nc7ncc8c(n7)-c7ccc(Cl)cc7C(c7c(F)cccc7F)=NC8)cc6)nn5)CC4)ccc3C2=O)C(=O)N1 (stereo partly drawn) [UB-180989] | > 1000 |
| O=C1CCC(N2Cc3c(NC(=O)CCCCCCCCCNCCn4cc(-c5ccc(Nc6ncc7c(n6)-c6ccc(Cl)cc6C(c6c(F)cccc6F)=NC7)cc5)nn4)cccc3C2=O)C(=O)N1 (stereo not drawn) [UB-180990] | > 1000 |
| O=C1CCC(N2Cc3cc(NC(=O)CCNCCOCCOCCn4cc(-c5ccc(Nc6ncc7c(n6)-c6ccc(Cl)cc6C(c6c(F)cccc6F)=NC7)cc5)nn4)ccc3C2=O)C(=O)N1 (stereo not drawn) [UB-180991] | > 1000 |
| O=C1CCC(N2Cc3cc(NC(=O)CCNCCOCCOCCn4cc([C@]5(Cc6cccc(Nc7nccs7)n6)CC[C@@H](Oc6cccc(Cl)c6F)CC5)nn4)ccc3C2=O)C(=O)N1 (stereo partly drawn) [UB-180994] | > 1000 |

The compounds below were run on NCIH82 cells (assay: Cell proliferation experiment, NCI-H82). Settings: Homo sapiens, NCI-H82, NCI-H82 cells; read-out: Inhibitory activity IC50 on NCI-H82.
Type: cell-based, human
Method: as §1, §2, §3, §4, §5, §6

| SMILES | IC50 [nM] |
| --- | --- |
| CCNC(=O)C#Cc1ccc2c(c1)NC(=O)/C2=C(\Nc1ccc(CNCCOCCOCCOCCC(=O)Nc2ccc3c(c2)CN(C2CCC(=O)NC2=O)C3=O)cc1)c1ccccc1 (stereo not drawn) [UB-180972] | 100 to 1000 |
| O=C1CCC(N2Cc3cc(C#CCCNCCOCCOCCOCCn4cc([C@]5(Cc6cccc(Nc7nccs7)n6)CC[C@@H](Oc6cccc(Cl)c6F)CC5)nn4)ccc3C2=O)C(=O)N1 (stereo partly drawn) [UB-180973] | > 1000 |
| O=C1CCC(N2Cc3c(C#CCCNCCOCCOCCOCCn4cc(-c5ccc(Nc6ncc7c(n6)-c6ccc(Cl)cc6C(c6c(F)cccc6F)=NC7)cc5)nn4)cccc3C2=O)C(=O)N1 (stereo not drawn) [UB-180974] | > 1000 |
| O=C1CCC(N2Cc3c(C#CCCOCCN[C@H]4CC[C@H](n5cc(-c6ccc(Nc7ncc8c(n7)-c7ccc(Cl)cc7C(c7c(F)cccc7F)=NC8)cc6)nn5)CC4)cccc3C2=O)C(=O)N1 (stereo partly drawn) [UB-180975] | > 1000 |
| O=C1CCC(N2Cc3cc(NC(=O)CNCCOCCOCCOCCn4cc(-c5ccc(Nc6ncc7c(n6)-c6ccc(Cl)cc6C(c6c(F)cccc6F)=NC7)cc5)nn4)ccc3C2=O)C(=O)N1 (stereo not drawn) [UB-180976] | > 1000 |
| O=C1CCC(N2Cc3cc(NC(=O)CCOCCOCCN[C@H]4CC[C@@H](n5cc(-c6ccc(Nc7ncc8c(n7)-c7ccc(Cl)cc7C(c7c(F)cccc7F)=NC8)cc6)nn5)CC4)ccc3C2=O)C(=O)N1 (stereo partly drawn) [UB-180981] | > 1000 |
| O=C1CCC(N2Cc3cc(NC(=O)CCCCCCCNCCCn4cc(-c5ccc(Nc6ncc7c(n6)-c6ccc(Cl)cc6C(c6c(F)cccc6F)=NC7)cc5)nn4)ccc3C2=O)C(=O)N1 (stereo not drawn) [UB-180982] | > 1000 |
| O=C1CCC(N2Cc3cc(NC(=O)CCCCCCCNCCn4cc(-c5ccc(Nc6ncc7c(n6)-c6ccc(Cl)cc6C(c6c(F)cccc6F)=NC7)cc5)nn4)ccc3C2=O)C(=O)N1 (stereo not drawn) [UB-180983] | 100 to 1000 |
| O=C1CCC(N2Cc3c(NC(=O)CCCCCCCNCCCn4cc(-c5ccc(Nc6ncc7c(n6)-c6ccc(Cl)cc6C(c6c(F)cccc6F)=NC7)cc5)nn4)cccc3C2=O)C(=O)N1 (stereo not drawn) [UB-180987] | > 1000 |
| O=C1CCC(N2Cc3c(NC(=O)CCCCCCCN[C@H]4CC[C@@H](n5cc(-c6ccc(Nc7ncc8c(n7)-c7ccc(Cl)cc7C(c7c(F)cccc7F)=NC8)cc6)nn5)CC4)cccc3C2=O)C(=O)N1 (stereo partly drawn) [UB-180988] | > 1000 |
| O=C1CCC(N2Cc3cc(NC(=O)CCCCCCCN[C@H]4CC[C@@H](n5cc(-c6ccc(Nc7ncc8c(n7)-c7ccc(Cl)cc7C(c7c(F)cccc7F)=NC8)cc6)nn5)CC4)ccc3C2=O)C(=O)N1 (stereo partly drawn) [UB-180989] | > 1000 |
| O=C1CCC(N2Cc3c(NC(=O)CCCCCCCCCNCCn4cc(-c5ccc(Nc6ncc7c(n6)-c6ccc(Cl)cc6C(c6c(F)cccc6F)=NC7)cc5)nn4)cccc3C2=O)C(=O)N1 (stereo not drawn) [UB-180990] | > 1000 |
| O=C1CCC(N2Cc3cc(NC(=O)CCNCCOCCOCCn4cc(-c5ccc(Nc6ncc7c(n6)-c6ccc(Cl)cc6C(c6c(F)cccc6F)=NC7)cc5)nn4)ccc3C2=O)C(=O)N1 (stereo not drawn) [UB-180991] | > 1000 |
| O=C1CCC(N2Cc3cc(NC(=O)CCNCCOCCOCCn4cc([C@]5(Cc6cccc(Nc7nccs7)n6)CC[C@@H](Oc6cccc(Cl)c6F)CC5)nn4)ccc3C2=O)C(=O)N1 (stereo partly drawn) [UB-180994] | > 1000 |
